Data: patent US20050215625A9, “Combination therapy for anticoagulation” (priority 2003, published 2005)
Where two headings read alike, the source gives them in different places.

Tested on: anticoagulation level (International Normalized Ratio)
Conditions: for variation from low to high doses of warfarin / warfarin dose, low to high: across the first 24 measures
Experimental: Adult anticoagulation patients presenting to the practice site were informed of the study, and the opportunity to be a test subject. Subjects were required to complete a study entry data interview, provide informed consent, and present to the clinic once to twice weekly for INR evaluation. The control group and a second group (the algorithm group) of patients were provided warfarin alone as an anticoagulation agent, while the study group patients received warfarin and 100 μg of vitamin K in a single gelatin capsule from a single pharmacy. […] The study received clearance from the St. Mary's Medical Center Institutional Review Board, Galesburg, Ill.
An initial study interview was conducted and identified a patient's sex, age, indication for anticoagulation, and prescription and nonprescription medication usage. Those who were appropriate for study and provided consent were required to present to the clinic for once or twice weekly INR testing.
The control group (N=6) received their warfarin dosed by conventional tablet forms and presented to the office at least weekly for INR labs (more often if dosage changes were required).
The algorithm group (N=6) received their warfarin based upon an algorithm devised by the investigators to standardize the adjustments and the dosing of warfarin in smaller increments than those available in conventional dosages of oral medication (tablets). The algorithm specified dosages of warfarin other than those used by the manufacturer, in order for the prescribing physician to specify smaller incremental dosage changes than those permitted with the standard dosages available.
The purpose of having the algorithm group as a part of the study was to determine if the algorithm played a significant role in reducing nontherapeutic anticoagulation intervals. […] If a dosing adjustment was required due to a nontherapeutic INR, the dose of warfarin would be adjusted in a fixed increment and the time of the next INR set by reducing the interval.
The second theory behind the algorithm is that at the lower warfarin doses, the interval between easily taken amounts is a significant dose change. For example, the increase in dosage between 1 mg and 2 mg daily is a 100 percent dose increase. In comparison, the increase between the 4 mg tab and the 5 mg tab is a 25 percent dose increase. In order to create smaller dosage steps between doses of warfarin, the various available tablets were halved along their scoring lines and the appropriate amount was placed into a gelatin capsule for easy daily dosing. For instance, a dose of 1.75 mg warfarin required one-half of a 2.5 mg tablet and one-half of a 1 mg tab to be placed into a gelatin capsule. A cooperating compounding pharmacist placed the daily doses of warfarin into gelatin capsules for the use of the patients in the algorithm group.
The study group (N=12) received warfarin combined with 100 μg of vitamin K compounded into a gelatin capsule by the compounding pharmacist. The warfarin was dosed by the study algorithm, described above. Patients who randomized to this group received their current dose of warfarin along with the dose of vitamin K in the daily gelatin capsule. And as the INR fluctuated, the dose of warfarin was adjusted by the algorithm.
The combination of warfarin and vitamin K was accomplished by adding fixed amounts of each into an orally dosed form. The doses of warfarin used within the study protocol were (in milligrams): 0.5, 1, 1.25, 1.5, 1.75, 2.0, 2.25, 2.5, 2.75, 3.0, 3.25, 3.5, 3.75, 4.0, 4.5, 5.0, 5.5, 6.0, 6.5, 7.0, 7.5, 8.0, 8.5, 9.0, 9.5, 10, 11, 12, 13, 15.

[1] = algorithm only arm, average dose
[2] = combination capsule group (dosed by algorithm) or standard care group

In the case of CC(=O)CC(c1ccccc1)c1c(O)c2ccccc2oc1=O (centres unmarked) [warfarin alone, 3-(_-acetonylbenzyl)-4-hydroxycoumarin], the “variation from low to high doses of warfarin” value [1] is reported as 25.3%, the “warfarin dose, low to high” value [1] is reported as 4.71-6.30 mgs and the “variation from low to high doses of warfarin” value [2] is reported as 36.9%. The “warfarin dose, low to high” value [2] was 3.50-5.55 mgs, the “persons with a dosage change in their anticoagulation after a change in concomitant medical therapy” value (control and algorithm arms, includes two subjects who had this occur twice) was “Eight” and the “number of clinically safe anticoagulation levels (INR level between 2.0 and 3.0)” value (over six months, INR at least weekly, up to 35 INR measurements, combination group N=12 (100 μg vitamin K) vs control and algorithm groups combined, p=0.032) was 14.83. The “number of medically safe anticoagulation levels (INR level between 1.8 and 3.5)” value (over six months, INR at least weekly, combination group N=12 vs control and algorithm groups combined, p=0.048) was 18.42 and the “number of medically unsafe INRs (INR less than 1.5 or greater than 4.9)” value (over six months, combination group N=12 vs control and algorithm groups combined, p=0.054, not significant) was 22.00.
